Source: PMC7756582, “Prodrugs of γ‐Alkyl‐Modified Nucleoside Triphosphates: Improved Inhibition of HIV Reverse Transcriptase” (Angewandte Chemie (International Ed. in English), 2020)

Key:
HIV-2(ROD) [1] = assay: Anti-HIV activity assay, HIV-2-infected thymidine-kinase-deficient CEM/TK- cell cultures; format: cell-based; details: for EC50: mean±SD, n=2-3
Protocol: (§1) γ‐(AB,alkyl)‐d4TTP prodrugs 6 and the γ‐alkyl‐d4TTPs 7 were evaluated for their ability to inhibit the replication of HIV in HIV‐1‐ or HIV‐2‐infected wild‐type CEM/0 as well as mutant thymidine‐kinase‐deficient CEM cell cultures (CEM/TK^−). For comparison, two TriPPPro derivatives 5 were also included in this assay.
(§2) Anti-HIV activity assay: Inhibition of HIV-1(IIIB)- and HIV-2(ROD)-induced cytopathicity in wild-type CEM/0 and thymidine kinase-deficient CEM/TK- cell cultures was measured in microtiter 96-well plates containing ~3·105 CEM cells/mL infected with 100 CCID50 of HIV per milliliter and containing appropriate dilutions of the test compounds. After 4−5 days of incubation at 37 °C in a CO2-controlled humidified atmosphere, CEM giant (syncytium) cell formation was examined microscopically. […]
(§3) was defined as the compound concentration required to inhibit HIV-induced giant cell formation by 50%. […]
(§4) The result was visualized by fluorescence imaging. […]
as §4

pig liver esterase (PLE) = assay: Enzymatic hydrolysis with pig liver esterase (PLE); format: in vitro ADME; details: pH 7.3, 37 °C; for half-life at 0.45 mM: pig liver esterase (PLE) in PBS, pig liver esterase in PBS, read-out: t 1/2 with PLE (cleavage of acyloxybenzyl masking unit); for cleavage of the alkyl residue by esterase: PLE in PBS
Protocol: Next, the enzymatic stability of prodrugs γ‐(AB‐C4,alkyl‐C18)‐d4TTP 6 cz and γ‐(AB‐C15,alkyl‐C4)‐d4TTP 6 ew was examined by incubation with PLE, which is used as a model enzyme for studying the esterase activation of the prodrugs, in PBS, pH 7.3 at 37 °C. […] This proves our initial concept of introducing an enzyme (esterase)‐stable group to the γ‐phosphate unit.
ProLab 300 from Schott Co.. Thermomixer: Eppendorf Thermomixer 5436 and CellMedia Thermoschüttler basic were used.
Fluorescent Imager: ChemiDoc™ MP Imaging System (170-8280) from Bio-Rad Co. was used for primer extension study.
Electrophoresis: Thermo Fisher OwlTM S4S Aluminum-Backed Sequencer System. Power supply: Consort EV2230 Gel […]
Further aliquots were taken for monitoring the kinetic hydrolysis. The exponential decay curves (pseudo-first order) based on absolute integral values were calculated with commercially available software (OriginPro 9.0G) and yielded the half-lives t1/2 of the prodrugs via one determination.
Enzymatic hydrolysis of compounds 6,7 with pig liver esterase (PLE):
10 µL 50 mM DMSO stock solution of compounds 6,7 was diluted to 6.0 mM hydrolysis solution by addition of 31.7 µL DMSO and 41.7 µL ultrapure water. Then 83.3 µl of the 6.0 mM solution was diluted with 125 µL DMSO and 833 µl 50 mM PBS buffer (pH 7.3).
The reaction was started by addition of 62.5 µl of PLE in PBS buffer (3 mg/mL) and the mixture was incubated with 800 rpm at 37 °C in a thermomixer. At different times, aliquots (100 µl) were taken and the reaction was stopped by addition to […] MeOH. The mixture was kept for 5 min on ice followed by centrifugation for 5 min (13000 rpm). The mixture was filtered (Chromafil RC-20/15 MS, […]) and stored in liquid nitrogen. When testing, the samples were defrosted and injection volume with 80 µL was used for HPLC […]
The calculation of t1/2 was performed analogously to that for the chemical hydrolysis studies.
Preparation of cell extracts: Human CD4+ T-lymphocyte CEM cells were grown in RPMI-1640-based cell culture medium to a final density of ~3·10^6 cells/ml. Then, cells were centrifuged for 10 min at 1,250 rpm at 4 °C, washed twice with cold PBS, and the pellet was re-suspended at 10^8 cells/ml and sonicated (Hielscher Ultrasound Techn., 100% amplitude, 3·times for 10 sec) to destroy cell integrity. The resulting cell suspension was then centrifuged at 10,000 rpm to remove cell debris, and the supernatant divided in aliquots before being frozen at -80 C and used.
(1 picture or pasted object on this page, not shown here)

HIV-2(ROD) [2] = assay: Anti-HIV activity assay, HIV-2-infected wild-type CEM/0 cell cultures; format: cell-based; details: Human immunodeficiency virus 2, CCRF-CEM, read-out: EC50 CEM/0 HIV-2
Protocol: as §1, §2, §3, §4, §4

[3] = target: T1, HIV reverse transcriptase (RT) (Human immunodeficiency virus type 1 group M subtype B, UniProt P03366); assay: Primer extension assay with HIV-RT; format: biochemical, HIV-1; details: for primer extension by HIV-RT (substrate properties): with the other three canonical triphosphates, HIV-RT 6 U
T1 construct: reverse transcriptase (RT; an HIV‐encoded RNA‐dependent DNA polymerase); purchased Roboklon
Protocol: Primer-extension reactions:
HIV-RT and human DNA polymerase β and γ were obtained from Roboklon, human DNA polymerase α was obtained from Chimerx.
The primers and templates were purchased from Life Technologies and Microsynth. The fluorescent labeled primer was purchased
from Metabion and Microsynth. The gels were prepared with the size of 450mm×200mm×0.4mm according to the electrophoresis
5’-FITC and 5’-Cy3 labeled Primer-sequence:
The primer extension assays were performed under the following conditions:
FITC and Cy3 labeled primer extension assay:
1) Hybridization: After 5 min incubation at 95 °C in 20 mM Tris-HCl (pH 7.6) and 50 mM NaCl, the hybridization/annealing of the
primer to the template strand was achieved by a cooling phase from 95 °C to […] lasted more than 2 hours. […]
The assays were separated using a denaturating PAGE (15%). The result was visualized by fluorescence imaging. […]
as §4, §4

[4] = Human immunodeficiency virus 2, thymidine-kinase-deficient CEM/TK− cells, HIV-2, read-out: EC50 CEM/TK− HIV-2
[5] = wild-type CEM/0 cells, HIV-2, mean±SD, n=2-3
[6] = Human immunodeficiency virus 2, CEM-TK(-), read-out: EC50 CEM/TK− HIV-2, thymidine-kinase-deficient CEM/TK− cells, HIV-2
[7] = read-out: EC50 CEM/TK− HIV-2, thymidine-kinase-deficient CEM/TK− cells, HIV-2

CCCCCCCCCCCCCCCC(=O)Oc1ccc(COP(=O)(OCCCC)OP(=O)(O)OP(=O)(O)OCC2C=CC(n3cc(C)c(=O)[nH]c3=O)O2)cc1 (stereo not drawn) [6 ew, γ‐(AB‐C15,alkyl‐C4)‐d4TTP]
antiviral activity in CEM/TK− cell cultures (in words) (HIV-2(ROD) [1]; HIV-2-infected CEM/TK− cells): inactive
EC50 (HIV-2(ROD) [1]; [4]): > 10 µM
half-life at 0.45 mM (pig liver esterase (PLE)): 25.5 min
EC50 (HIV-2(ROD) [2]; [5]): 0.24 ± 0.01 µM

CCCCOP(=O)(O)OP(=O)(O)OP(=O)(O)OCC1C=CC(n2cc(C)c(=O)[nH]c2=O)O1 (stereo not drawn) [7 w, γ‐C4‐d4TTP]
primer extension by HIV-RT (substrate properties) ([3]; 15 min incubation): single incorporation and an immediate chain termination
comparison of substrate properties for HIV-RT ([3]; incubation 10, 20, 40 and 60 min, conversion of primer to n+1 product): better substrates
antiviral activity in CEM/TK− cell cultures (in words) (HIV-2(ROD) [1]; HIV-2-infected CEM/TK− cells): almost inactive
EC50 (HIV-2(ROD) [1]; [6]): 35 µM
EC50 (HIV-2(ROD) [1]; [7]): 36 ± 29 µM
cleavage of the alkyl residue by esterase (pig liver esterase (PLE)): no cleavage of the alkyl residue
EC50 (HIV-2(ROD) [2]): 0.29 ± 0.15 µM

CCCCCCCCCCCCCCCCCCOP(=O)(O)OP(=O)(O)OP(=O)(O)OCC1C=CC(n2cc(C)c(=O)[nH]c2=O)O1 (stereo not drawn) [7 z, γ‐C18‐d4TTP]
primer extension by HIV-RT (substrate properties) ([3]; 30 min incubation): immediate chain termination
primer extension by HIV-RT (substrate properties) ([3]; 60 min incubation, dNTPs 66 μM): Only the n+1 band was detected
antiviral activity improved versus TriPPPro intermediates comprising a C17 aliphatic chain (HIV-2(ROD) [1]; HIV-2-infected CEM/TK− cells): 30 fold
antiviral activity in CEM/TK− cell cultures (in words) (HIV-2(ROD) [1]; HIV-2-infected CEM/TK− cells): highly potent
more active than d4T (HIV-2(ROD) [1]; HIV-2-infected CEM/TK− cells): 2700 fold
EC50 (HIV-2(ROD) [1]; [6]): 0.055 µM
EC50 (HIV-2(ROD) [1]; [7]): 0.05 ± 0.027 µM
cleavage of the alkyl residue by esterase (pig liver esterase (PLE)): no cleavage of the alkyl residue
EC50 (HIV-2(ROD) [2]): 0.11 ± 0.084 µM

Cc1cn(C2C=CC(COP(=O)(O)OP(=O)(O)OP(=O)(O)O)O2)c(=O)[nH]c1=O (stereo not drawn) [2 t, d4TTP, reference compound]
primer extension by HIV-RT (substrate properties) ([3]; 60 min incubation, dNTPs 66 μM): only the n+1 band is visible
antiviral activity in CEM/TK− cell cultures (in words) (HIV-2(ROD) [1]; HIV-2-infected CEM/TK− cells): inactive
EC50 (HIV-2(ROD) [1]; [6]): > 100 µM
EC50 (HIV-2(ROD) [2]): 0.4 ± 0.26 µM

CCCCCCCCCCCCCCCCCCOP(=O)(OCc1ccc(OC(=O)CCCC)cc1)OP(=O)(O)OP(=O)(O)OCC1C=CC(n2cc(C)c(=O)[nH]c2=O)O1 (stereo not drawn) [6 cz, γ‐(AB‐C4,alkyl‐C18)‐d4TTP]
EC50 (HIV-2(ROD) [1]; [4]): 0.17 µM
half-life at 0.45 mM (pig liver esterase (PLE)): 8.1 min
EC50 (HIV-2(ROD) [2]; [5]): 0.16 ± 0.1 µM
